The results in this text go back to patent US11547697B2, “Heterocyclic compounds and uses thereof” (MILLENNIUM PHARMACEUTICALS, INC., priority 2009, dated 2023).

Read-outs that look alike come from different tables or passages of the source.

The target of one assay is p110α/p85α (Homo sapiens (Human), UniProt P42336). Kind of assay: PI 3-Kinase (human) HTRF assay, p110α/p85α. It counts as biochemical.
For a further assay, the target named is p110β/p85α (Homo sapiens (Human), UniProt P42338). Nature of the assay: PI 3-Kinase (human) HTRF assay, p110β/p85α. In kind it is biochemical. In general terms: TR-FRET usually uses a lanthanide donor and a delayed reading to cut background.
p110β/p85α, sequence (P42338 whole entry): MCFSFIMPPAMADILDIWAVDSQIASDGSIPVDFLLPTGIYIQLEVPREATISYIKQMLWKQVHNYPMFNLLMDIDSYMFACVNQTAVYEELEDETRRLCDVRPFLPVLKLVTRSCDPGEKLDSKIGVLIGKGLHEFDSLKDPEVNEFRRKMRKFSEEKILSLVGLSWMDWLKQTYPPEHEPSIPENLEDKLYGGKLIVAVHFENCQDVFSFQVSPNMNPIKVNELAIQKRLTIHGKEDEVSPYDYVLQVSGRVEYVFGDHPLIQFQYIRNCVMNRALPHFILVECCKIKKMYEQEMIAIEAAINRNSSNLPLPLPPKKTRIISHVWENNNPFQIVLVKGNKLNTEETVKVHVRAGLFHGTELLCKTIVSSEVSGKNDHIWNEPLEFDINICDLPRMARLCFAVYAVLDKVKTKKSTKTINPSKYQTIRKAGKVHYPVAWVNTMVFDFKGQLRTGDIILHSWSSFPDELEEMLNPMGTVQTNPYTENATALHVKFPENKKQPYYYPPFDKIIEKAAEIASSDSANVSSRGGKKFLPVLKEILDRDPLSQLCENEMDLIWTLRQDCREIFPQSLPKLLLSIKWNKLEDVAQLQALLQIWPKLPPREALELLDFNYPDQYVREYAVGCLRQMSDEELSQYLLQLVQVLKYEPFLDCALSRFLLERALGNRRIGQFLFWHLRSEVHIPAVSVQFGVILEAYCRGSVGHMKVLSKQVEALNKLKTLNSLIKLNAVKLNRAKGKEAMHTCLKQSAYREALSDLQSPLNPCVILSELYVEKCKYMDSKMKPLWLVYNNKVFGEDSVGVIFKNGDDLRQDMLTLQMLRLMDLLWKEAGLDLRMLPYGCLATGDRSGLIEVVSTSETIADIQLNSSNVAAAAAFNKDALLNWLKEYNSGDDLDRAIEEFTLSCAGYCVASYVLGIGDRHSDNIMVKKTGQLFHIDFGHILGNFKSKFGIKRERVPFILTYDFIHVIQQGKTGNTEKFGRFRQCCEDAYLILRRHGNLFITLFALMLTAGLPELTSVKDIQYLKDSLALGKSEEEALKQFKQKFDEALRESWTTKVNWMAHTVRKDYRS
p110β/p85α, sequence (P27986 whole entry partner): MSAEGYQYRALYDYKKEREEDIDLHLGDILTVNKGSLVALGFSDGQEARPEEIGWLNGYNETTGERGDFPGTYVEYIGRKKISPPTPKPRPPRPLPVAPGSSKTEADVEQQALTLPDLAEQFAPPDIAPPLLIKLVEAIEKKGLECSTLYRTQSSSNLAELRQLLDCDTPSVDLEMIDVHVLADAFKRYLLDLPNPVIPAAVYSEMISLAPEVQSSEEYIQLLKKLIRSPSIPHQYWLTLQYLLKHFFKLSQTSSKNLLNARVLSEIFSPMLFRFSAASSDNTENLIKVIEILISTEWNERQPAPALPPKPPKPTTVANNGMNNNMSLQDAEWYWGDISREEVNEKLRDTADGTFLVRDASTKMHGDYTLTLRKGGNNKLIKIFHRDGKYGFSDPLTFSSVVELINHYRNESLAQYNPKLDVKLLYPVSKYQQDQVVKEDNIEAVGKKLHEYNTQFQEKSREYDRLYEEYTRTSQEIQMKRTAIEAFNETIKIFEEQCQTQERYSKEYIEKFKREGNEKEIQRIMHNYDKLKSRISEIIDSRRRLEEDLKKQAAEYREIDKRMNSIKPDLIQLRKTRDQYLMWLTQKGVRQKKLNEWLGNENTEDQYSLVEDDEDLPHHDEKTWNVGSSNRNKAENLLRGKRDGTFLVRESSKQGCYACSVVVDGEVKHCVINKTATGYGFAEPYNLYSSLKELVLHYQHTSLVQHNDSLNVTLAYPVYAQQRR
The target in the next assay is p110δ/p85α (Homo sapiens (Human), UniProt O00329). Nature of the assay: PI 3-Kinase (human) HTRF assay, p110δ/p85α. It counts as biochemical.
p110δ/p85α, sequence (O00329 whole entry): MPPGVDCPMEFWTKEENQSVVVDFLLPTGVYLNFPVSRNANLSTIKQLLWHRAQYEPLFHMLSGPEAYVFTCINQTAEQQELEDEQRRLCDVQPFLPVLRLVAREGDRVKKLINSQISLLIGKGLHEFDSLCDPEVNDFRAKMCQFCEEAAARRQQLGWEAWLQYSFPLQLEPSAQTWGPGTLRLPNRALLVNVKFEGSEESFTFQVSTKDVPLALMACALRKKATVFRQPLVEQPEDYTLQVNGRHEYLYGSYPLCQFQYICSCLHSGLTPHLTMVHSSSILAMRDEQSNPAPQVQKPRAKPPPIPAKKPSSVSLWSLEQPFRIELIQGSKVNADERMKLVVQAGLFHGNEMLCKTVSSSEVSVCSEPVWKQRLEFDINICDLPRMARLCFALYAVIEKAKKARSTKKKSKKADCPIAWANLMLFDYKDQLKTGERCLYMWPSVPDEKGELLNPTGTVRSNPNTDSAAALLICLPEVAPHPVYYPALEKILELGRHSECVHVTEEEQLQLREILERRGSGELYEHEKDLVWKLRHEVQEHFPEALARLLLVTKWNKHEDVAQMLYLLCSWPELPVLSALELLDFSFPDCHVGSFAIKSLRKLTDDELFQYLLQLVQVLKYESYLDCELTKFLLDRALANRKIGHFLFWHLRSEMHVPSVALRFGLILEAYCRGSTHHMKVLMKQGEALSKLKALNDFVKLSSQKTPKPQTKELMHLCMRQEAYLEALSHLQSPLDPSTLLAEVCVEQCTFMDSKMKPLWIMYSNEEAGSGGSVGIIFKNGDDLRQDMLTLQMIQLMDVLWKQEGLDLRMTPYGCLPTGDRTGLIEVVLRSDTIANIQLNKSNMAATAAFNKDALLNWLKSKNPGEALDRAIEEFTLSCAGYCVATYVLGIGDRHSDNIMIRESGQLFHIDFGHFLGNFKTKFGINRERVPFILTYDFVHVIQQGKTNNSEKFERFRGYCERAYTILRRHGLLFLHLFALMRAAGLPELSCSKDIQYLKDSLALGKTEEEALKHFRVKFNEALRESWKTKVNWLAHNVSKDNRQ
p110δ/p85α, sequence (P27986 whole entry partner): as the sequence (P27986 whole entry partner) above
The target in the next assay is p110γ (Homo sapiens (Human), UniProt P48736). Kind of assay: PI 3-Kinase (human) HTRF assay, p110γ. It counts as biochemical.
p110γ, sequence (P48736 whole entry): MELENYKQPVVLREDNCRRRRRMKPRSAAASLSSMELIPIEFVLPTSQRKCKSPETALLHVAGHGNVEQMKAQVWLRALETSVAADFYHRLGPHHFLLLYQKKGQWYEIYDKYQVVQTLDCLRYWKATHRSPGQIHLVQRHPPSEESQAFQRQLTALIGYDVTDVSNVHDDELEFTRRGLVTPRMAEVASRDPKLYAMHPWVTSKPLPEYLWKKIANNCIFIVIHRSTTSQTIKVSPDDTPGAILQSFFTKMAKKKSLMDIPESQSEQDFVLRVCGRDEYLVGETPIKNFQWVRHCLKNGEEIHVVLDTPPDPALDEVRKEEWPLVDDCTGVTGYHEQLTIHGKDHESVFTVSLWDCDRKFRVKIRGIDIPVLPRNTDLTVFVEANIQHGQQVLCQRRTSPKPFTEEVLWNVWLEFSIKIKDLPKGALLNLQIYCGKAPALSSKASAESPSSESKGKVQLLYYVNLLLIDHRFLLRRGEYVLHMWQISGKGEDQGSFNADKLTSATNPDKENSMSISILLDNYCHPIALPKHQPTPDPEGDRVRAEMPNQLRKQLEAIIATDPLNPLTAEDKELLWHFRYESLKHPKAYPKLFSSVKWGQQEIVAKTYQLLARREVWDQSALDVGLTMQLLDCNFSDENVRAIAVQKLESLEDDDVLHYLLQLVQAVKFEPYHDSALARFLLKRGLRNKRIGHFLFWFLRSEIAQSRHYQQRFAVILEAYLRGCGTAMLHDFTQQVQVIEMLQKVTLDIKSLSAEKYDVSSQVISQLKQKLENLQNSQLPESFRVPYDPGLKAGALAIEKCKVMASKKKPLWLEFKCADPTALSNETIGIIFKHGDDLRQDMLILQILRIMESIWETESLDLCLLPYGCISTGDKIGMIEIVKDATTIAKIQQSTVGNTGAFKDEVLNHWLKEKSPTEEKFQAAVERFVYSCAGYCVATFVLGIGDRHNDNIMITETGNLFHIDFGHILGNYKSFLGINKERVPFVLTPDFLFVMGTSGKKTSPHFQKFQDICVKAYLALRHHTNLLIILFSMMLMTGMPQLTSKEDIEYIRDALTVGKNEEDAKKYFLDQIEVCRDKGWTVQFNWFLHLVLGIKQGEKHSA
Assay [1] has as its system tumor cells with a PI3Kα mutation (e.g., MDA-MB-361 and T47D). Kind of assay: Proliferation of tumor cells with PI3Kα mutation. It counts as cell-based. The note with it: Homo sapiens.
The mark [2] stands for this setting: in vitro, read-out: PI3K α IC50.
Where [3] appears, read: in vitro, read-out: PI3K β IC50.
The mark [4] stands for this setting: in vitro, read-out: PI3K δ IC50.
Where [5] appears, read: in vitro, read-out: PI3K γ IC50.
[6] abbreviates: T47D cells, read-out: T47D proliferation IC50.
[7] abbreviates: PC3, read-out: PC3 proliferation In Vitro IC50.
[8] abbreviates: T47D cells, read-out: T47D proliferation.

p110α/p85α, sequence (P42336 whole entry): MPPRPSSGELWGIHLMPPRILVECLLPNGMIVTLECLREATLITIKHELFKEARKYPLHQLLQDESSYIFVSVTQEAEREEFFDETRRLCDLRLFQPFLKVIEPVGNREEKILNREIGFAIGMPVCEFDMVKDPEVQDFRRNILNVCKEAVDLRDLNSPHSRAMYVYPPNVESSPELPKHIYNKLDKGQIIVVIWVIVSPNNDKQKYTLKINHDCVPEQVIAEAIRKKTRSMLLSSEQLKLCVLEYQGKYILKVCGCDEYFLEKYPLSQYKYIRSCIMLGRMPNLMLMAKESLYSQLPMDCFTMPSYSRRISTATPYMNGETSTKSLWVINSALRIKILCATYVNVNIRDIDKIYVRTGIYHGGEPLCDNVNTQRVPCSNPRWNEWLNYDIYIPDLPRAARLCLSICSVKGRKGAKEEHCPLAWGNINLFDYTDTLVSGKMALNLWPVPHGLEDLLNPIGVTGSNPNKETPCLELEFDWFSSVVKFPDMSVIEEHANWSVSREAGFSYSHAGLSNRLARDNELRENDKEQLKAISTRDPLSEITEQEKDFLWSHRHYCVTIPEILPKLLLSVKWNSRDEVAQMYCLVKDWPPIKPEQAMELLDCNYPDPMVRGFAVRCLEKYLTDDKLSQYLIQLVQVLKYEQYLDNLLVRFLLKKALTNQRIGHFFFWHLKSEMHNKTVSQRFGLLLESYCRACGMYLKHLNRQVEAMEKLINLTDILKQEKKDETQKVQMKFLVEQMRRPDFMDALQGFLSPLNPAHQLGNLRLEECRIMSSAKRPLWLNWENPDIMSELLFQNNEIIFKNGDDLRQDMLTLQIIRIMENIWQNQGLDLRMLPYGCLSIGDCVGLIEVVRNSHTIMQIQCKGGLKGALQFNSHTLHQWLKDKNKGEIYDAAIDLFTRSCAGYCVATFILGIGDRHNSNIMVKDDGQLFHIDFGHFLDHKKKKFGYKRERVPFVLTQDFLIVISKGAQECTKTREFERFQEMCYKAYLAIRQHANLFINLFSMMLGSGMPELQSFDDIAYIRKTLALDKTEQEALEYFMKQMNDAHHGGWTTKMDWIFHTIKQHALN
p110α/p85α, sequence (P27986 whole entry partner): as the sequence (P27986 whole entry partner) above
Description for p110β/p85α: An exemplary system is PI 3-Kinase (human) HTRF™ Assay from Upstate. […] Briefly, the assay is a time resolved FRET assay that indirectly measures PIP3 product formed by the activity of a PI3-K. The kinase reaction is performed in a microtitre plate (e.g., a 384 well microtitre plate). The total reaction volume is approximately 20 ul per well. In the first step, each well receives 2 ul of test compound in 20% dimethylsulphoxide resulting in a 2% DMSO final concentration. Next, approximately 14.5 ul of a kinase/PIP2 mixture (diluted in 1× reaction buffer) is added per well for a final concentration of 0.25-0.3 ug/ml kinase and 10 μM PIP2. The plate is sealed and incubated for 15 minutes at room temperature. To start the reaction, 3.5 ul of ATP (diluted in 1× reaction buffer) is added per well for a final concentration of 10 μM ATP. The plate is sealed and incubated for 1 hour at room temperature. The reaction is stopped by adding 5 ul of Stop Solution per well and then 5 ul of Detection Mix is added per well. The plate is sealed, incubated for 1 hour at room temperature, and then read on an appropriate plate reader. Data is analyzed and IC50s are generated using GraphPad Prism 5. […] For PI3K α, β, δ, and γ, the nM concentration of inhibitor to reach IC50 is provided.

For the compound `CN1CCC(Nc2ncnc3ccc(-c4ccc5oc(N)nc5c4)nc23)CC1` [compound 212], the IC50 is less than 0.1 µM on p110α/p85α (setting [2]); less than 1 µM on p110β/p85α (setting [3]); less than 1 µM on p110δ/p85α (setting [4]); less than 1 µM on p110γ (setting [5]); less than 1 µM in assay [1] (setting [6]).

In the case of `CC(C)(N)C(=O)N1CCN(c2cnc3ccc(-c4ccc5oc(N)nc5c4)cc3n2)CC1` [compound 213], the IC50 was less than 0.1 µM at p110α/p85α (setting [2]), less than 1 µM at p110β/p85α (setting [3]), less than 1 µM on p110δ/p85α (setting [4]) and less than 1 µM in assay [1] (setting [6]).

For the compound `CN(C(=O)c1cnc2ccc(-c3ccc4oc(N)nc4c3)cn12)C1CCOCC1` [compound 472], the IC50 was less than 0.1 µM at p110α/p85α (read-out: PI3K α In Vitro IC50); less than 10 µM at p110β/p85α (read-out: PI3K β In Vitro IC50); less than 10 µM on p110δ/p85α (read-out: PI3K δ In Vitro IC50); less than 1 µM on p110γ (read-out: PI3K γ In Vitro IC50); less than 10 µM in assay [1] (setting [7]).

In the case of `COc1ccc(-c2ccc3ncc(C(=O)N4CCOCC4)n3c2)cc1NS(=O)(=O)c1cccnc1` [compound 462], the IC50 was less than 0.1 µM at p110α/p85α (read-out: PI3K α In Vitro IC50); less than 0.1 µM on p110β/p85α (read-out: PI3K β In Vitro IC50); less than 0.1 µM at p110δ/p85α (read-out: PI3K δ In Vitro IC50); less than 0.1 µM on p110γ (read-out: PI3K γ In Vitro IC50); less than 1 µM in assay [1] (setting [7]).

Take `CC(C)N1CCN(c2cnc3ccc(-c4ccc5oc(N)nc5c4)cc3n2)CC1` [compound 84]: the IC50 on p110α/p85α (read-out: PI3K α IC50) was less than 0.1 µM; at p110β/p85α (read-out: PI3K β IC50), less than 0.1 µM; on p110δ/p85α (read-out: PI3K δ IC50), less than 1 µM; on p110γ (read-out: PI3K γ IC50), less than 0.1 µM; in assay [1] (setting [8]), less than 10 µM.

As for `CC(N)C(=O)N1CCN(c2cnc3ccc(-c4ccc5oc(N)nc5c4)cc3n2)CC1` (stereo not shown) [compound 134], the IC50 is less than 0.1 µM on p110α/p85α (read-out: PI3K α IC50); less than 1 µM on p110β/p85α (read-out: PI3K β IC50); less than 1 µM at p110δ/p85α (read-out: PI3K δ IC50); less than 10 µM on p110γ (read-out: PI3K γ IC50); less than 1 µM in assay [1] (setting [8]).

For the compound `Nc1nc2cc(-c3ccc4ncc(C(=O)NCCO)n4c3)ccc2o1` [compound 189], the IC50 was less than 0.1 µM on p110α/p85α (read-out: PI3K α IC50); less than 1 µM at p110β/p85α (read-out: PI3K β IC50); less than 1 µM at p110δ/p85α (read-out: PI3K δ IC50); less than 1 µM on p110γ (read-out: PI3K γ IC50); less than 1 µM in assay [1] (setting [8]).

With `C[C@H]1CN(C(=O)C2CN(c3cnc4ccc(-c5ccc6oc(N)nc6c5)cc4n3)C2)CCN1` [compound 268], the IC50 on p110α/p85α (setting [2]) is less than 0.1 µM; on p110β/p85α (setting [3]), less than 10 µM; on p110δ/p85α (setting [4]), less than 10 µM; on p110γ (setting [5]), less than 1 µM; in assay [1] (setting [6]), less than 1 µM.

Turning to `Nc1nc2cc(-c3ccc4ncc(N5CC(N6CCN(CC7CC7)CC6)C5)nc4c3)ccc2o1` [compound 335], the IC50 on p110α/p85α (setting [2]) is less than 0.1 µM; at p110β/p85α (setting [3]) it was less than 10 µM; on p110δ/p85α (setting [4]), less than 10 µM; in assay [1] (setting [6]), less than 1 µM.

In the case of `Nc1nc2cc(-c3ccc4ncc(N5CCC(N)CC5)nc4c3)ccc2o1` [compound 168], the IC50 on p110α/p85α (read-out: PI3K α IC50) was less than 0.1 µM; on p110β/p85α (read-out: PI3K β IC50), less than 1 µM; on p110δ/p85α (read-out: PI3K δ IC50), less than 10 µM; in assay [1] (setting [8]) it was less than 10 µM.

Consider `CNC(=O)CN1CCN(c2cnc3ccc(-c4ccc5oc(N)nc5c4)cc3n2)CC1` [compound 120], for which the IC50 on p110α/p85α (read-out: PI3K α IC50) was less than 0.1 µM; at p110β/p85α (read-out: PI3K β IC50) it was less than 1 µM; at p110δ/p85α (read-out: PI3K δ IC50), less than 10 µM; in assay [1] (setting [8]), less than 1 µM.

As for `CN1CCC(n2cnc3ccc(-c4cnc(Cl)c(NS(C)(=O)=O)c4)cc3c2=O)CC1` [compound 526], the IC50 on p110α/p85α (read-out: PI3K α In Vitro IC50) was less than 0.1 µM; at p110β/p85α (read-out: PI3K β In Vitro IC50), less than 10 µM; at p110δ/p85α (read-out: PI3K δ In Vitro IC50), less than 1 µM; in assay [1] (setting [7]), less than 10 µM.

On to `CN1CCN(c2ccc(-c3cnc4ccc(-c5ccc6oc(N)nc6c5)cn34)cn2)CC1` [compound 42], for which the IC50 on p110α/p85α (read-out: PI3K α IC50) is less than 0.1 µM; on p110δ/p85α (read-out: PI3K δ IC50), less than 1 µM; on p110γ (read-out: PI3K γ IC50) it was less than 1 µM; in assay [1] (setting [8]), less than 10 µM.

On to `Nc1nc2cc(-c3ccc4ncc(-c5ccc6nc(N)oc6c5)n4c3)ccc2o1` [compound 50], for which the IC50 at p110α/p85α (read-out: PI3K α IC50) is less than 0.1 µM; on p110δ/p85α (read-out: PI3K δ IC50), less than 10 µM; at p110γ (read-out: PI3K γ IC50), less than 0.1 µM; in assay [1] (setting [8]), less than 10 µM.

As to `Cc1ccc(NC(=O)c2cnc3ccc(-c4ccc5oc(N)nc5c4)cn23)cn1` [compound 294], the IC50 at p110α/p85α (setting [2]) is less than 0.1 µM; on p110δ/p85α (setting [4]), less than 10 µM; at p110γ (setting [5]) it was less than 0.1 µM; in assay [1] (setting [6]), less than 10 µM.
